Measured values: the supplement of paper PMC10307832

Legend:
Assay in all cases: relative viability (nuclei count vs DMSO), 5 days (fraction); higher = more cells survive
Irinotecan + Dasatinib = compound: CCc1c2c(nc3ccc(OC(=O)N4CCC(N5CCCCC5)CC4)cc13)-c1cc3c(c(=O)n1C2)COC(=O)[C@]3(O)CC [Irinotecan] + Cc1nc(Nc2ncc(C(=O)Nc3c(C)cccc3Cl)s2)cc(N2CCN(CCO)CC2)n1 [Dasatinib] (partner 0.075 µM)
Outline: (§1)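 Each reported value is a median over duplicate plates. It expresses relative viability: treated-well nuclei count divided by vehicle-well nuclei count. Lung cancer cell lines in 1536-well plates were dosed by pin tool a day after seeding, alone with one drug or with a fixed anchor-drug dose plus five library-drug doses (not always all listed) in √10 steps, and nuclei were counted after 5 days.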

RU-SKI 43 + Decitabine = compound: CC[C@@H](C)CNCC(=O)N1CCC2=C([C@@H]1COC3=CC=CC(=C3)C)C=CS2 [RU-SKI 43] + Nc1ncn([C@H]2C[C@H](O)[C@@H](CO)O2)c(=O)n1 [Decitabine] (partner 2 µM)
Outline: as §1

MK-8033 + Trametinib = compound: Cn1cc(-c2cnc3ccc4ccc(CS(=O)(=O)NCc5ccccn5)cc4c(=O)c3c2)cn1 [MK-8033] + CC(=O)Nc1cccc(-n2c(=O)n(C3CC3)c(=O)c3c(Nc4ccc(I)cc4F)n(C)c(=O)c(C)c32)c1 [Trametinib] (partner 0.02 µM)
Outline: as §1

MK-8033 + Bortezomib = compound: Cn1cc(-c2cnc3ccc4ccc(CS(=O)(=O)NCc5ccccn5)cc4c(=O)c3c2)cn1 [MK-8033] + CC(C)C[C@H](NC(=O)[C@H](Cc1ccccc1)NC(=O)c1cnccn1)B(O)O [Bortezomib] (partner 0.002 µM)
Outline: as §1

| Cell Line | relative viability (Irinotecan + Dasatinib; first compound 0.6325 µM) | relative viability (Irinotecan + Dasatinib; first compound 2 µM) | relative viability (Irinotecan + Dasatinib; first compound 6.325 µM) | relative viability (Irinotecan + Dasatinib; first compound 20 µM) | relative viability (RU-SKI 43 + Decitabine; first compound 0.1 µM) | relative viability (RU-SKI 43 + Decitabine; first compound 0.3162 µM) | relative viability (RU-SKI 43 + Decitabine; first compound 1 µM) | relative viability (RU-SKI 43 + Decitabine; first compound 3.162 µM) | relative viability (RU-SKI 43 + Decitabine; first compound 10 µM) | relative viability (MK-8033 + Trametinib; first compound 0.02 µM) | relative viability (MK-8033 + Trametinib; first compound 0.06325 µM) | relative viability (MK-8033 + Trametinib; first compound 0.2 µM) | relative viability (MK-8033 + Trametinib; first compound 0.6325 µM) | relative viability (MK-8033 + Trametinib; first compound 2 µM) | relative viability (MK-8033 + Bortezomib; first compound 0.02 µM) | relative viability (MK-8033 + Bortezomib; first compound 0.06325 µM) | relative viability (MK-8033 + Bortezomib; first compound 0.2 µM) | relative viability (MK-8033 + Bortezomib; first compound 0.6325 µM) | relative viability (MK-8033 + Bortezomib; first compound 2 µM) |
| --- | --- | --- | --- | --- | --- | --- | --- | --- | --- | --- | --- | --- | --- | --- | --- | --- | --- | --- | --- |
| NCI-H1623 | 0.391 | 0.442 | 0.214 | 0.22 | – | – | – | – | – | – | – | – | – | – | – | – | – | – | – |
| NCI-H647 | 0.123 | 0.187 | 0.131 | 0.0807 | 0.383 | 0.404 | 0.393 | 0.43 | 0.353 | 0.449 | 0.469 | 0.412 | 0.456 | 0.415 | 0.874 | 0.819 | 1.04 | 0.934 | 0.871 |
| NCI-H520 | 0.192 | 0.214 | 0.202 | 0.161 | 0.502 | 0.564 | 0.568 | 0.589 | 0.501 | 0.615 | 0.565 | 0.56 | 0.795 | 0.629 | 0.471 | 0.309 | 0.495 | 0.565 | 0.446 |
| IA-LM | – | – | – | – | – | – | – | – | – | – | – | – | – | – | 0.791 | 0.746 | 0.83 | 0.782 | 0.802 |
| LC-2-ad | 0.286 | 0.437 | 0.184 | 0.204 | 0.866 | 0.766 | 0.81 | 0.849 | 0.728 | 0.895 | 0.888 | 0.885 | 0.916 | 0.898 | 1.12 | 0.996 | 0.885 | 0.996 | 0.933 |
| EKVX | – | 0.457 | 0.387 | 0.3 | 0.303 | 0.254 | 0.146 | 0.342 | 0.365 | 0.334 | 0.297 | 0.295 | 0.367 | 0.344 | 1 | 0.995 | 0.968 | 0.712 | 1.03 |
| NCI-H2228 | 0.443 | 0.481 | 0.318 | 0.246 | – | – | – | – | – | 0.278 | 0.403 | 0.435 | 0.341 | 0.582 | 1.04 | 0.932 | 1.08 | 0.998 | 1.06 |
| NCI-H596 | 0.576 | 0.765 | 0.703 | 0.633 | 1.08 | 1.04 | 0.91 | 1.16 | 1.07 | 0.683 | 0.916 | 0.733 | 0.837 | 0.877 | 1.18 | 0.933 | 0.882 | 0.941 | 1.09 |
| NCI-H322M | 0.247 | 0.331 | 0.358 | 0.191 | 0.631 | 0.673 | 0.717 | 0.689 | 0.65 | 0.527 | 0.565 | 0.488 | 0.585 | 0.476 | 1.29 | 1.2 | 1.11 | 1.14 | 1.18 |
| NCI-H358 | 0.142 | 0.151 | 0.136 | 0.105 | 0.199 | 0.184 | 0.248 | 0.217 | 0.19 | 0.141 | 0.124 | 0.11 | 0.146 | 0.131 | – | – | – | – | – |
| NCI-H1648 | – | – | – | – | 0.452 | 0.535 | 0.466 | 0.554 | 0.444 | 0.499 | – | 0.408 | 0.499 | 0.432 | – | – | – | – | – |
| NCI-H1395 | 0.298 | 0.535 | 0.415 | 0.522 | 0.661 | 0.858 | 0.776 | 0.714 | 0.696 | 0.911 | 0.983 | 1.01 | 1.05 | 1.03 | – | – | – | – | – |
| CAL-12T | – | 0.513 | 0.29 | 0.095 | – | – | – | – | – | 0.347 | 0.297 | 0.31 | 0.413 | 0.329 | 0.935 | 0.946 | 0.876 | 1.16 | 1.01 |
| NCI-H1299 | – | – | – | – | – | – | – | – | – | – | – | – | – | – | 1.03 | 0.997 | 1.03 | 1.05 | 1 |
| NCI-H1703 | – | – | – | – | – | – | – | – | – | – | – | – | – | – | 0.401 | 0.302 | 0.268 | 0.307 | 0.298 |
| NCI-H2342 | 0.304 | 0.278 | 0.299 | 0.377 | 0.701 | – | 0.724 | 0.797 | 0.769 | 0.83 | 0.773 | 0.827 | 0.999 | 0.83 | – | – | – | – | – |
| NCI-H2170 | 0.563 | 0.663 | 0.281 | 0.164 | 0.439 | 0.514 | 0.438 | 0.426 | 0.49 | 0.838 | 0.92 | 0.844 | 0.922 | 0.824 | – | – | – | – | – |
| ABC-1 | – | 0.675 | 0.444 | 0.203 | 1.01 | 1.14 | 1.2 | 1.07 | 1.17 | – | – | – | – | – | 0.307 | 0.263 | 0.319 | 0.337 | 0.313 |
| HCC-44 | – | – | – | – | 0.98 | 0.911 | 0.922 | 0.977 | 0.953 | 1.01 | 1.04 | 1.04 | 1.02 | 1.04 | 0.9 | 0.838 | 0.803 | 0.907 | 0.833 |
| NCI-H522 | 0.639 | 0.868 | 0.485 | 0.532 | 0.682 | 0.568 | 0.669 | 0.768 | 0.677 | 0.72 | 0.701 | 0.669 | 0.657 | 0.766 | – | – | – | – | – |
| Calu-6 | – | – | – | – | – | – | – | – | – | – | – | – | – | – | 0.959 | 1.03 | 1.04 | 0.955 | 1.01 |
| NCI-H1793 | – | 0.385 | 0.252 | 0.234 | 0.461 | 0.421 | 0.458 | 0.486 | 0.443 | 0.425 | – | 0.362 | 0.447 | 0.361 | – | – | – | – | – |
| LK-2 | 0.251 | 0.298 | 0.249 | 0.287 | 0.317 | 0.279 | 0.408 | 0.298 | 0.246 | 0.668 | 0.687 | 0.688 | 0.849 | 0.766 | – | – | – | – | – |
| NCI-H1944 | 0.151 | 0.189 | 0.121 | 0.107 | 0.449 | 0.4 | 0.423 | 0.473 | 0.442 | 0.407 | 0.418 | 0.395 | 0.391 | 0.398 | – | – | – | – | – |
